{"source": "patent US6841563B1", "about": "“Aryloxy propanolamines for improving livestock production” (Eli Lilly and Company, priority 1999, dated 2005)", "key": {"[1]": {"assay": "28-day cattle study, orally administered Compound 6: growth and carcass measurements", "format": "in vivo", "details": "for Feed efficiency / Yield grade (YG) / area of the longissimus dorsi muscle at the twelfth rib: oral, 28 days", "procedure": "Thirty-two Angus crossbred steers were blocked by weight into a heavy (4 heaviest blocks, avg. initial BW=1226 lb. (557 kg)) and a light (4 lightest blocks, avg. initial BW=1164 lb. (528 kg)) replication. The steers within each block were assigned to one of four treatments (8 steers/treatment) to investigate the effects of orally administered Compound 6 on the growth and carcass measurements when fed to cattle for 28 days immediately prior to slaughter. The treatments included a CONTROL (0.0 mg Compound 6 per kg BW), and three levels of Compound 6 (LOW, 0.125 mg Compound 6 per kg BW; MED, 0.250 mg Compound 6 per kg BW; HIGH, 0.500 mg Compound 6 per kg BW). Compound 6 was mixed with ground corn and fed to the steers as a top dress on a portion of their daily feed. The CONTROL steers received a similar amount of a ground corn top dress. The steers were required to consume the initial feed and top dress before the remaining amount of feed was issued. The basal ration was a commercially available feed (19.3% CP, DM basis). Both feed and water were available ad libitum. The steers were individually housed in 12 ft×48 ft pens equipped with an individual feed bunk and automatic waterer. On day 28 the steers were weighed and a blood sample collected prior to being shipped for slaughter and subsequent carcass evaluation."}, "[2]": {"assay": "Weight gain, feed efficiency, breast and leg quarter weights, last 28 days of growing period in broiler chickens", "format": "in vivo", "details": "for Bone-in, Skin-on Breast Weight / Bone-in, Skin-on leg Quarter Weight / Dressing Percentage / Fat Pad Weight / Final Weight Day 49 / Hot Carcass Weight / Interim Weight Day 35 / Pen Feed Intake / Total Weight Gain (d 21-49) / Viscera Weight / Weight Gain Period 1 (d 21-35) / Weight Gain Period 2 (d 35-49) / Feed Efficiency F/G: day 21-49; for Feed Efficiency F/G: pen feed intake/total pen weight; for improvement of feed efficiency (feed/gain) compared with control: 28-day treatment period", "description": "Approximately 2500 Peterson-Hubbard, day-old, male chicks were used in a randomized, complete-block design with 3 treatments (Control and Compound 6 at 3 and 15 PPM (mg/kg feed)). The testing facility contained two wings, each containing 30 pens. The pens in each wing were divided into 6 blocks of 5 pens. Treatments were randomly allotted within each block. Each treatment consisted of 12 pens with 10 birds per pen.\nDay-of-age birds were obtained from Pine Manor Hatchery in Goshen, Ind. Approximately 40 birds per pen were set at random upon receipt. On day 16 of the growout period, all birds were weighed and the 15 birds closest to the block mean were selected. These birds were allowed to acclimate until day 21 of age. On this day, all remaining birds were weighed again, and the 10 birds/pen closest to the block mean were chosen for the treatment phase. Birds were provided ad libitum access to feed and water throughout the trial. All birds were fed a 23% crude protein corn-soy ration from day 1 until day 18 of age. The feed was changed to a 20% crude protein ration for day 18 to day 49. The treatment feed was mixed using the 20% crude protein basal ration. Treatments were administered in the feed from day 21 through day 49. An interim weight was taken on day 35. Feed consumption was calculated over the entire 28-day treatment period. Birds were weighed at trial completion (day 49), and were transported to Purdue University meat laboratory for slaughter and carcass measurements on day, 50. Weights of the hot carcass; fat pad; viscera; bone-in, skin-on breast; and bone-in, skin-on, leg quarter were taken on all animals."}}, "note": "Marks after values point to notes of the source that are not given here.", "data": [{"smiles": "CC(C)(Cc1ccc(Oc2ncccc2C(N)=O)cc1)NC[C@H](O)COc1cccc2[nH]ccc12", "note": "[Compound 6, (S)-2-[4-[2-[2-Hydroxy-3-(1H-indol-4-yloxy)propylamino]-2-methylpropyl]-phenoxy]-3-pyridinecarboxamide]", "values": [{"measurement": "Conformation score", "setting": "[1]; Compound 6 treatments vs CONTROL, P<0.005", "result": "higher"}, {"measurement": "Fat thickness at the twelfth rib", "setting": "[1]; Compound 6 treatments vs CONTROL, P>0.78", "result": "not different"}, {"measurement": "Dressing percent", "setting": "[1]; Compound 6 treatments vs CONTROL, F-test P=0.1138, Treatment P<0.05", "result": "to be higher"}, {"measurement": "Feed efficiency", "setting": "[1]; HIGH, 0.500 mg per kg BW", "result": "4.18 pound of feed per pound of gain"}, {"measurement": "Yield grade (YG)", "setting": "[1]; HIGH, 0.500 mg per kg BW", "result": 2.46}, {"measurement": "area of the longissimus dorsi muscle at the twelfth rib", "setting": "[1]; HIGH, 0.500 mg per kg BW", "result": 14.5, "unit": "in^2"}, {"measurement": "Feed efficiency", "setting": "[1]; LOW, 0.125 mg per kg BW", "result": "4.36 pound of feed per pound of gain"}, {"measurement": "area of the longissimus dorsi muscle at the twelfth rib", "setting": "[1]; LOW, 0.125 mg per kg BW", "result": 13.5, "unit": "in^2"}, {"measurement": "Yield grade (YG)", "setting": "[1]; LOW, 0.125 mg per kg BW, lower value = more saleable meat", "result": 2.76}, {"measurement": "Feed efficiency", "setting": "[1]; MED, 0.250 mg per kg BW", "result": "4.19 pound of feed per pound of gain"}, {"measurement": "Yield grade (YG)", "setting": "[1]; MED, 0.250 mg per kg BW", "result": 2.51}, {"measurement": "area of the longissimus dorsi muscle at the twelfth rib", "setting": "[1]; MED, 0.250 mg per kg BW", "result": 14.3, "unit": "in^2"}, {"measurement": "carcass composition (% fat, % protein, % moisture, % bone)", "setting": "[1]; among the treatments, P>0.12, calculated by Hankins and Howe equations", "result": "did not differ statistically"}, {"measurement": "USDA quality grade and marbling scores", "setting": "[1]; among the treatments, P>0.90", "result": "Neither the USDA quality grade nor marbling scores differed"}, {"measurement": "Daily dry matter intake", "setting": "[1]; between the treatments (CONTROL, LOW, MED, HIGH), P>0.47", "result": "did not differ"}, {"measurement": "Bone-in, Skin-on Breast Weight", "setting": "[2]; 3 PPM in feed", "result": "618.03* g"}, {"measurement": "Bone-in, Skin-on leg Quarter Weight", "setting": "[2]; 3 PPM in feed", "result": "665.64** g"}, {"measurement": "Dressing Percentage", "setting": "[2]; 3 PPM in feed", "result": "71.14**"}, {"measurement": "Fat Pad Weight", "setting": "[2]; 3 PPM in feed", "result": 51.67, "unit": "g"}, {"measurement": "Final Weight Day 49", "setting": "[2]; 3 PPM in feed", "result": "2.78** kg"}, {"measurement": "Hot Carcass Weight", "setting": "[2]; 3 PPM in feed", "result": "1995.58** g"}, {"measurement": "Interim Weight Day 35", "setting": "[2]; 3 PPM in feed", "result": "1.66* kg"}, {"measurement": "Pen Feed Intake", "setting": "[2]; 3 PPM in feed", "result": 41.22, "unit": "kg"}, {"measurement": "Total Weight Gain (d 21-49)", "setting": "[2]; 3 PPM in feed", "result": "2.09** kg"}, {"measurement": "Viscera Weight", "setting": "[2]; 3 PPM in feed", "result": 265.82, "unit": "g"}, {"measurement": "Weight Gain Period 1 (d 21-35)", "setting": "[2]; 3 PPM in feed", "result": "0.96* kg"}, {"measurement": "Weight Gain Period 2 (d 35-49)", "setting": "[2]; 3 PPM in feed", "result": "1.12** kg"}, {"measurement": "Feed Efficiency F/G", "setting": "[2]; 3 PPM in feed", "result": 2.04}, {"measurement": "improvement of feed efficiency (feed/gain) compared with control", "setting": "[2]; 3 PPM, P=0.1426", "result": 6.85, "unit": "%"}, {"measurement": "increase in bone-in, skin-on, leg quarters weight", "setting": "[2]; 3 PPM, P=0.0001", "result": 10.63, "unit": "%"}, {"measurement": "increase in hot carcass weights over control", "setting": "[2]; 3 PPM, P=0.0001", "result": 6.50, "unit": "%"}, {"measurement": "decrease in viscera weights compared to control", "setting": "[2]; 3 PPM, P=0.4004", "result": 1.54, "unit": "%"}, {"measurement": "increase in weight gain over control", "setting": "[2]; 3 PPM, entire 28-day treatment period, P=0.0051", "result": 5.03, "unit": "%"}, {"measurement": "increase in weight gain over control", "setting": "[2]; 3 PPM, first 14 days of the treatment period, P=0.0395", "result": 3.22, "unit": "%"}, {"measurement": "increase in weight gain over control", "setting": "[2]; 3 PPM, last 14 days of treatment, P=0.0064", "result": 6.67, "unit": "%"}, {"measurement": "Bone-in, Skin-on Breast Weight", "setting": "[2]; 15 PPM in feed", "result": 600.55, "unit": "g"}, {"measurement": "Bone-in, Skin-on leg Quarter Weight", "setting": "[2]; 15 PPM in feed", "result": "635.36** g"}, {"measurement": "Dressing Percentage", "setting": "[2]; 15 PPM in feed", "result": "71.16**"}, {"measurement": "Fat Pad Weight", "setting": "[2]; 15 PPM in feed", "result": 49.16, "unit": "g"}, {"measurement": "Final Weight Day 49", "setting": "[2]; 15 PPM in feed", "result": 2.70, "unit": "kg"}, {"measurement": "Hot Carcass Weight", "setting": "[2]; 15 PPM in feed", "result": "1928.17* g"}, {"measurement": "Interim Weight Day 35", "setting": "[2]; 15 PPM in feed", "result": 1.63, "unit": "kg"}, {"measurement": "Pen Feed Intake", "setting": "[2]; 15 PPM in feed", "result": 39.09, "unit": "kg"}, {"measurement": "Total Weight Gain (d 21-49)", "setting": "[2]; 15 PPM in feed", "result": 2.01, "unit": "kg"}, {"measurement": "Viscera Weight", "setting": "[2]; 15 PPM in feed", "result": 261.08, "unit": "g"}, {"measurement": "Weight Gain Period 1 (d 21-35)", "setting": "[2]; 15 PPM in feed", "result": 0.94, "unit": "kg"}, {"measurement": "Weight Gain Period 2 (d 35-49)", "setting": "[2]; 15 PPM in feed", "result": 1.07, "unit": "kg"}, {"measurement": "Feed Efficiency F/G", "setting": "[2]; 15 PPM in feed", "result": 2.09}, {"measurement": "improvement of feed efficiency (feed/gain) compared with control", "setting": "[2]; 15 PPM, P=0.3594", "result": 4.57, "unit": "%"}, {"measurement": "increase in bone-in, skin-on, leg quarters weight", "setting": "[2]; 15 PPM, P=0.0003", "result": 5.60, "unit": "%"}, {"measurement": "increase in hot carcass weights over control", "setting": "[2]; 15 PPM, P=0.0434", "result": 2.90, "unit": "%"}, {"measurement": "decrease in viscera weights compared to control", "setting": "[2]; 15 PPM, P=0.0764", "result": 3.29, "unit": "%"}, {"measurement": "increase in weight gain over control", "setting": "[2]; 15 PPM, entire 28-day treatment period, P=0.5419", "result": 1.01, "unit": "%"}, {"measurement": "increase in weight gain over control", "setting": "[2]; 15 PPM, first 14 days of the treatment period, P=0.7600", "result": 1.08, "unit": "%"}, {"measurement": "increase in weight gain over control", "setting": "[2]; 15 PPM, last 14 days of treatment, P=0.5028", "result": 1.90, "unit": "%"}, {"measurement": "effect on fat pad weight (fat accretion)", "setting": "[2]; at either dose (3 PPM, 15 PPM)", "result": "no significant effect"}, {"measurement": "increase in breast muscle weight (bone and skin attached)", "setting": "[2]; high dose (15 PPM), P=0.5351", "result": 1.06, "unit": "%"}, {"measurement": "increase in breast muscle weight (bone and skin attached)", "setting": "[2]; low dose (3 PPM), P=0.0227", "result": 4.00, "unit": "%"}]}]}
